Test results taken from patent US12582638B2, “Pharmaceutical composition for treating cancer, containing mTOR-signaling inhibitor as active ingredient” (KOREA ADVANCED INSTITUTE OF SCIENCE AND TECHNOLOGY, priority 2020, dated 2026).

Legend:
[1] = tested on: colorectal cancer patient-derived organoids; experiment: Viability assay for organoids derived from colorectal cancer patients (imaging based); format: cell-based, human; conditions: two colorectal cancer patient-derived organoids; 72 hours; FIG. 20
Description: Two-type colorectal cancer patient-derived organoids (organoid from males at 01-46 of age and organoid from females at 02-74 of age) were treated with lomitapide and assayed for viability as follows.
Organoids derived from colorectal cancer patients were cultured for 5-7 days on 48-well plates (SPL, cat 32048).
The organoids were separated from the plates by pipetting with 200 μL of Dulbecco's phosphate-buffered saline (DPBS; Welgene LB001-02) and transferred to new tubes.
For staining, the separated organoids and Hoechst (Thermo, #H-1399) were added at a ratio of 1:2,000 to a culture medium and incubated for 30 minutes at 37° C. in a 5% CO2 incubator. […]
Following the dispense, the number, state, and area of organoids were measured through DAPI signals with the aid of the high-contents imaging-based screening device Cytation 5 (Biotek).
Subsequently, organoid areas were monitored three times every 24 hours for 72 hours without changing the culture medium.
The effectiveness of the drug was calculated by applying the raw data derived from Cytation 5 to the following formulas. […]
Each organoid stained with Hoechst was measured for area (μm^2) by using Cytation 5, and areas of the all organoids in each well were summed.
The difference between the organoid area after 72 hours of drug treatment and the organoid area at the first 0 hour was calculated. […]

COV434 = experiment: Cell viability, CellTiterGlo, 72 hours; format: cell-based; conditions: COV434 cells, Ovary
Description: In addition to the colorectal cells, 120 cancer cell lines treated with various concentrations of lomitapide were assayed for viability.
To analyze cell viability, the cells were incubated with lomitapide at 37° C. for 72 hours in a 5% or 10% CO2 atmosphere and then equilibrated at room temperature for 1 hour, followed by addition of CellTiterGlo reagent (Promega). One hour later, luminescence was measured to calculate cell viability (%). The 120 cell lines were purchased from ATCC (American Type Culture Collection, Virginia, USA).

HCT116 [2] = experiment: Viability assay for lomitapide-treated colorectal cells (CellTiter-Glo, 24); format: cell-based, human
Description: (§1) NCM460, HCT116, HT29, and SW480 cell lines were each seeded at a density of 10^4 cells/well into 96-well plates and incubated 37° C. for 24 hours before treatment with various concentrations (0, 1, 2, 5, and 10 μM) of lomitapide (Sigma Aldrich, Missouri, USA). After treatment of the cells with lomitapide at 37° C. for 24 in a 5% CO2 atmosphere, 100 μL of an assay reagent (CellTiter-Glo® Reagent) was added to each well. Then, luminescence was read using VICTOR X Multilabel Reader (PerkinElmer, Massachusetts, USA) and used to calculate cell viability (%). Results are depicted in FIGS. 2 to 4.

HT29 = experiment: as above; format: cell-based, human; conditions: 0, 1, 2, 5, and 10 μM, dose-dependent
Description: as §1

SW480 = experiment: as above; format: cell-based, human; conditions: 0, 1, 2, 5, and 10 μM, dose-dependent
Description: as §1

HCT116 [3] = experiment: RNA-seq assay, gene set enrichment, pathway enrichment and DEG analysis; format: cell-based, human; conditions: FIG. 12
Description: For the final detection of significant gene-sets, gene annotation databases (KEGG pathway, Gene Ontology, etc.) with various biological information about genes were used to discover various gene-sets by grouping genes with specific functions among all the genes used in the RNA-seq experiment. Significant genes were determined with reference to a difference in expression values between the two classes within each gene-set, and statistically significant gene-set was finally detected based on the significant genes. […] In DEG analysis, expression values of genes are measured and statistically processed to select a significant gene candidate group (differentially expression genes) with a difference in expression between a control and a comparison group.

MC38 colorectal cancer = experiment: Mouse homograft tumor model, MC38 colorectal cancer; format: in vivo; conditions: MC38 in C57B6/N mice
Description: For mouse homograft tumor model, experiments were conducted using female C57B6/N mice (wild-type, 6 weeks old) with MC38 colorectal cancer and B16F10 melanoma cell lines. MC38 colorectal cancer and B16F10 melanoma cell lines were each subcutaneously injected at a dose of 2×10^5 cells. Lomitapide used in the two models was formulated with 45% saline, 40% PEG300, 5% Tween-80, and 10% DMSO.
From 10 days after the DMC38 colorectal cancer cells injection, lomitapide was intraperitoneally injected five times at a dose of 20 mg/kg, and anti-PD-1 mAb (clone RMP1-14, BioXCell, West Lebanon, NH, USA) or rat IgG2a iso-type control (clone 2A3, BioXCell, BE0089) in PBS was administered at a dose of 10 mg/kg at days 1, 4, 7, and 10 (FIGS. 18a and 18b).

p-S6K, p-S6, LC3 = experiment: Cell signaling assay, western blot, SW480; format: cell-based, human; conditions: 0, 5, and 10 μM, FIG. 7a
Description: Cells treated with various concentrations (0, 5, and 10 μM) of lomitapide were lysed with RIPA buffer containing a protease-inhibitor cocktail. The whole-cell lysate was incubated on ice for 30 minutes. After centrifugation at 4° C. and 13,300×g for 15 minutes, the supernatant was collected. For use as controls, HCT116, SW480, HT29, MDA-MB-231, and MDA-MB-468 cells were treated with 1 μM of torin, known as an mTOR inhibitor.
For western blot analysis, the supernatant was loaded onto 10% SDS-PAGE gel. The separated proteins were blotted onto a PVDF membrane. Then, the blots were incubated with antibodies at 4° C. for 12 hours as follows (Table 2).
Then, the blots were washed with TBST (a mixture of tris-buffered saline (TBS) and Tween 20), incubated with horseradish peroxidase-conjugated secondary antibody (Cell signaling) at 37° C. for 1 hour, and washed, followed by detecting enhanced chemiluminescence (ECL; Amersham).

O=C(NC1CCN(CCCCC2(C(=O)NCC(F)(F)F)c3ccccc3-c3ccccc32)CC1)c1ccccc1-c1ccc(C(F)(F)F)cc1 [lomitapide, N-(2,2,2-trifluoroethyl)-9-[4-[4-[[[4′-(trifluoromethyl)[1,1′-biphenyl]2-yl]carbonyl]amino]-1-piperidinyl]butyl]-9H-fluoren-9-carboxamide]
organoid viability [1]: decreased in viability with the increase of the dose
IC50 (COV434): 3.1 µM
cell viability (HCT116 [2]; HCT116, 0, 1, 2, 5, and 10 μM, dose-dependent): reduced the viability
cell viability of cancer cells compared to normal cells (HCT116 [2]; HCT116 vs normal human colonic epithelial cells (NCM460), FIG. 2): decreased cell viability
cell viability (HT29): reduced the viability
cell viability (SW480): reduced the viability
expression of autophagy-related genes ATG family, ULK1, and DDIT4 (DEG analysis) (HCT116 [3]): significantly expressed
tumor growth compared to the groups treated with the anti-PD-1 mAb (MC38 colorectal cancer; lomitapide 20 mg/kg i.p., anti-PD-1 mAb 10 mg/kg): greatly suppressed and reduced
tumor growth compared to the control (MC38 colorectal cancer; lomitapide 20 mg/kg intraperitoneally five times): significantly suppressed and reduced tumor growth
conversion from LC3I into LC3II (p-S6K, p-S6, LC3): increased induction of conversion from LC3I into LC3II
phosphorylation levels of target proteins (p-S6K and p-S6) (p-S6K, p-S6, LC3): remarkably decreased phosphorylation levels
